Laboratory results published in patent publication US20210260036A1, “METHODS OF TREATMENT FOR ALPHA-1 ANTITRYPSIN DEFICIENCY” (Vertex Pharmaceuticals Incorporated, priority 2020, published 2021).

Key:
healthy subjects = experiment: Phase 1 randomized, double-blinded, placebo-controlled single and multiple-dose study; type: in vivo, human; conditions: single and multiple doses
Source text: A randomized, double-blinded, placebo-controlled single and multiple-dose Phase I study evaluating Compound I has been completed in healthy subjects.

Z-AAT [1] = target: T1, Z-AAT (Homo sapiens, UniProt P01009, E366K); experiment: Z-AAT folding, polymerization and secretion in cell line models; type: cell-based; conditions: multiple cell line models
Source text: (§1) 4-[5-(4-fluorophenyl)-6-tetrahydropyran-4-yl-1H-pyrrolo[2,3-f]indazol-7-yl]benzoic acid (Compound I), disclosed in PCT/US2020/032832, filed on May 14, 2020, is being developed as a treatment for AATD. […] Thus, Compound I has the potential to address both the loss-of-function and the gain-of-function aspects of the Z mutation. By restoring physiological levels of circulating AAT activity, Compound I may reduce the risk of lung disease. By preventing Z-polymer formation in the liver, Compound I may reduce the risk of developing progressive liver disease (fibrosis and cirrhosis).

Z-AAT [2] = target: T1, Z-AAT; experiment: Z-AAT folding and secretion in transgenic mice expressing human Z-AAT; type: in vivo; design: expressed in transfected cells; host or cells: transgenic mice expressing human Z-AAT; conditions: transgenic mice engineered to express human Z-AAT
Source text: as §1

T1 sequence (P01009 25-418 E366K): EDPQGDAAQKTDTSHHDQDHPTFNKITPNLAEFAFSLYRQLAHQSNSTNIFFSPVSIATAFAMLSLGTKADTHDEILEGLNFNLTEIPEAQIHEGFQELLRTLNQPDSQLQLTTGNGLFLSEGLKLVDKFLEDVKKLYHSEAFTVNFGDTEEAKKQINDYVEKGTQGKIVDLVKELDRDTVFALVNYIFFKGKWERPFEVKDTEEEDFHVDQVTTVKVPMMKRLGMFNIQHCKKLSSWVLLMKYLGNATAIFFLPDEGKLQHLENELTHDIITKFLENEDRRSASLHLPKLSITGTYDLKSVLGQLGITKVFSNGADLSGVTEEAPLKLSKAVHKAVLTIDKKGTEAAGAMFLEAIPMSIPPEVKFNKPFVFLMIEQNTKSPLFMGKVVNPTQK

folding of Z-AAT (Z-AAT [1]): promotes the proper folding of Z-AAT
SMILES: O=C(O)c1ccc(-c2c(C3CCOCC3)n(-c3ccc(F)cc3)c3cc4cn[nH]c4cc23)cc1 [Compound I, 4-[5-(4-fluorophenyl)-6-tetrahydropyran-4-yl-1H-pyrrolo[2,3-f]indazol-7-yl]benzoic acid]
safety and tolerability (healthy subjects): safe and well-tolerated
serious adverse events (healthy subjects): no serious adverse events
intracellular Z-AAT protein polymerization (Z-AAT [1]): preventing intracellular Z-AAT protein polymerization
secretion of functionally active AAT (Z-AAT [1]): increasing secretion of functionally active AAT
folding and secretion of functionally active AAT (Z-AAT [2]): facilitates proper folding and secretion of functionally active AAT
